Data reported in PubChem BioAssay (NCI).
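Where inhibition never reached the appropriate level, the endpoint shown equals the highest concentration tested. Otherwise, values were interpolated linearly from a five-concentration, 48-hour dose response in 96-well plates. The concentration for 50% growth inhibition is given as GI50. The concentration for full growth arrest is given as TGI.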

Legend:
Test in all cases: NCI tumour cell line growth inhibition, 48 h
EKVX NSCLC = system: EKVX NSCLC
M14 melanoma = system: M14 melanoma
SNB-75 CNS = system: SNB-75 CNS
SNB-19 CNS = system: SNB-19 CNS
DU-145 prostate = system: DU-145 prostate
HCT-116 colon = system: HCT-116 colon
U251 CNS = system: U251 CNS
OVCAR-8 ovarian = system: OVCAR-8 ovarian
MOLT-4 leukemia = system: MOLT-4 leukemia
OVCAR-5 ovarian = system: OVCAR-5 ovarian
A498 renal = system: A498 renal
MDA-MB-231 breast = system: MDA-MB-231 breast
786-0 renal = system: 786-0 renal
SK-MEL-5 melanoma = system: SK-MEL-5 melanoma
MDA-MB-435 = system: MDA-MB-435
HT29 colon = system: HT29 colon
SK-MEL-28 melanoma = system: SK-MEL-28 melanoma
MCF7 breast = system: MCF7 breast
NCI-H522 lung = system: NCI-H522 lung
SK-MEL-2 melanoma = system: SK-MEL-2 melanoma
SK-OV-3 ovarian = system: SK-OV-3 ovarian
HCC-2998 colon = system: HCC-2998 colon
NCI-H226 lung = system: NCI-H226 lung
HS 578T breast = system: HS 578T breast
HOP-62 NSCLC = system: HOP-62 NSCLC
TK-10 renal = system: TK-10 renal
IGROV1 ovarian = system: IGROV1 ovarian
OVCAR-3 ovarian = system: OVCAR-3 ovarian
PC-3 prostate = system: PC-3 prostate
HCT-15 colon = system: HCT-15 colon
SN12C renal = system: SN12C renal
RPMI-8226 leukemia = system: RPMI-8226 leukemia
UO-31 renal = system: UO-31 renal
CCRF-CEM leukemia = system: CCRF-CEM leukemia
SF-539 CNS = system: SF-539 CNS
SW-620 colon = system: SW-620 colon
UACC-257 melanoma = system: UACC-257 melanoma
A549 NSCLC = system: A549 NSCLC
RXF 393 renal = system: RXF 393 renal
KM12 colon = system: KM12 colon
K-562 leukemia = system: K-562 leukemia
UACC-62 melanoma = system: UACC-62 melanoma
NCI-H23 lung = system: NCI-H23 lung
HL-60(TB) leukemia = system: HL-60(TB) leukemia
CAKI-1 renal = system: CAKI-1 renal
NCI/ADR-RES ovarian = system: NCI/ADR-RES ovarian
SF-295 CNS = system: SF-295 CNS
LOX IMVI melanoma = system: LOX IMVI melanoma
T-47D breast = system: T-47D breast
COLO 205 colon = system: COLO 205 colon
SF-268 CNS = system: SF-268 CNS
HOP-92 NSCLC = system: HOP-92 NSCLC
OVCAR-4 ovarian = system: OVCAR-4 ovarian
NCI-H460 lung = system: NCI-H460 lung
BT-549 breast = system: BT-549 breast
SR leukemia = system: SR leukemia
ACHN renal = system: ACHN renal

Work on `CCOC(=O)C(=Cc1ccc(C#N)cc1)C(=O)OCC` yielded a GI50 (EKVX NSCLC) of 4.83 µM, a TGI (EKVX NSCLC) of 17.6 µM and a GI50 (M14 melanoma) of 1.89 µM. The TGI (M14 melanoma) was 4.26 µM, the GI50 (SNB-75 CNS) was 2.17 µM and the TGI (SNB-75 CNS) was 10.5 µM. For the same compound, the GI50 (SNB-19 CNS) was 2.66 µM, the TGI (SNB-19 CNS) was 7.7 µM and the GI50 (DU-145 prostate) was 3.04 µM. For the same compound, the TGI (DU-145 prostate) was 10.3 µM, the GI50 (HCT-116 colon) was 2.15 µM and the TGI (HCT-116 colon) was 4.22 µM. The GI50 (U251 CNS) was 2.15 µM, the TGI (U251 CNS) was 4.89 µM and the GI50 (OVCAR-8 ovarian) was 3.54 µM. The TGI (OVCAR-8 ovarian) was 11.4 µM, the GI50 (MOLT-4 leukemia) was 3.09 µM and the TGI (MOLT-4 leukemia) was 11.5 µM. The GI50 (OVCAR-5 ovarian) was 2.61 µM, the TGI (OVCAR-5 ovarian) was 11.2 µM and the GI50 (A498 renal) was 7.84 µM. For the same compound, the TGI (A498 renal) was 20.1 µM, the GI50 (MDA-MB-231 breast) was 2.69 µM and the TGI (MDA-MB-231 breast) was 6.95 µM. The GI50 (786-0 renal) was 1.84 µM, the TGI (786-0 renal) was 3.88 µM and the GI50 (SK-MEL-5 melanoma) was 1.92 µM. The TGI (SK-MEL-5 melanoma) was 3.67 µM, the GI50 (MDA-MB-435) was 1.98 µM and the TGI (MDA-MB-435) was 4.79 µM. The GI50 (HT29 colon) was 1.93 µM, the TGI (HT29 colon) was 3.77 µM and the GI50 (SK-MEL-28 melanoma) was 2.35 µM. For the same compound, the TGI (SK-MEL-28 melanoma) was 6.56 µM, the GI50 (MCF7 breast) was 2.07 µM and the TGI (MCF7 breast) was 7.61 µM. It also gave a GI50 (NCI-H522 lung) of 1.48 µM, a TGI (NCI-H522 lung) of 3.1 µM and a GI50 (SK-MEL-2 melanoma) of 1.93 µM. For the same compound, the TGI (SK-MEL-2 melanoma) was 4.19 µM, the GI50 (SK-OV-3 ovarian) was 9.86 µM and the TGI (SK-OV-3 ovarian) was 21.5 µM. The GI50 (HCC-2998 colon) was 1.81 µM, the TGI (HCC-2998 colon) was 3.43 µM and the GI50 (NCI-H226 lung) was 2.51 µM. It also gave a TGI (NCI-H226 lung) of 6.33 µM, a GI50 (HS 578T breast) of 4.19 µM and a TGI (HS 578T breast) of 37.9 µM. For the same compound, the GI50 (HOP-62 NSCLC) was 2.73 µM, the TGI (HOP-62 NSCLC) was 9.81 µM and the GI50 (TK-10 renal) was 2.28 µM. It also gave a TGI (TK-10 renal) of 7.3 µM, a GI50 (IGROV1 ovarian) of 2.61 µM and a TGI (IGROV1 ovarian) of 7.96 µM. The GI50 (OVCAR-3 ovarian) was 2.01 µM, the TGI (OVCAR-3 ovarian) was 4.39 µM and the GI50 (PC-3 prostate) was 2.28 µM. For the same compound, the TGI (PC-3 prostate) was 4.9 µM, the GI50 (HCT-15 colon) was 2.03 µM and the TGI (HCT-15 colon) was 6.17 µM. For the same compound, the GI50 (SN12C renal) was 1.81 µM, the TGI (SN12C renal) was 4.71 µM and the GI50 (RPMI-8226 leukemia) was 2.65 µM. The TGI (RPMI-8226 leukemia) was 7.71 µM, the GI50 (UO-31 renal) was 1.65 µM and the TGI (UO-31 renal) was 3.49 µM. It also gave a GI50 (CCRF-CEM leukemia) of 3 µM, a TGI (CCRF-CEM leukemia) of 9.32 µM and a GI50 (SF-539 CNS) of 1.91 µM. The TGI (SF-539 CNS) was 4.15 µM, the GI50 (SW-620 colon) was 2.1 µM and the TGI (SW-620 colon) was 4.72 µM. For the same compound, the GI50 (UACC-257 melanoma) was 2.41 µM, the TGI (UACC-257 melanoma) was 5.63 µM and the GI50 (A549 NSCLC) was 4.11 µM. The TGI (A549 NSCLC) was 14.5 µM, the GI50 (RXF 393 renal) was 1.87 µM and the TGI (RXF 393 renal) was 3.36 µM. The GI50 (KM12 colon) was 2.86 µM, the TGI (KM12 colon) was 8.8 µM and the GI50 (K-562 leukemia) was 3.44 µM. The TGI (K-562 leukemia) was over 100 µM, the GI50 (UACC-62 melanoma) was 1.99 µM and the TGI (UACC-62 melanoma) was 4.54 µM. For the same compound, the GI50 (NCI-H23 lung) was 2.15 µM, the TGI (NCI-H23 lung) was 5.53 µM and the GI50 (HL-60(TB) leukemia) was 1.88 µM. It also gave a TGI (HL-60(TB) leukemia) of 5.48 µM, a GI50 (CAKI-1 renal) of 2.12 µM and a TGI (CAKI-1 renal) of 5.37 µM. The GI50 (NCI/ADR-RES ovarian) was 3.33 µM, the TGI (NCI/ADR-RES ovarian) was 23.4 µM and the GI50 (SF-295 CNS) was 8.56 µM. The TGI (SF-295 CNS) was 21.2 µM, the GI50 (LOX IMVI melanoma) was 1.8 µM and the TGI (LOX IMVI melanoma) was 3.87 µM. For the same compound, the GI50 (T-47D breast) was 2.15 µM, the TGI (T-47D breast) was 7.96 µM and the GI50 (COLO 205 colon) was 1.87 µM. The TGI (COLO 205 colon) was 3.83 µM, the GI50 (SF-268 CNS) was 2.29 µM and the TGI (SF-268 CNS) was 7.57 µM. It also gave a GI50 (HOP-92 NSCLC) of 1.63 µM, a TGI (HOP-92 NSCLC) of 4.26 µM and a GI50 (OVCAR-4 ovarian) of 3.44 µM. For the same compound, the TGI (OVCAR-4 ovarian) was 12.6 µM, the GI50 (NCI-H460 lung) was 4.2 µM and the TGI (NCI-H460 lung) was 16 µM. For the same compound, the GI50 (BT-549 breast) was 2.06 µM, the TGI (BT-549 breast) was 4.9 µM and the GI50 (SR leukemia) was 1.31 µM. It also gave a TGI (SR leukemia) of over 100 µM, a GI50 (ACHN renal) of 1.78 µM and a TGI (ACHN renal) of 3.46 µM.
